Results: ChEMBL document CHEMBL4680259, “Discovery of bazedoxifene analogues targeting glycoprotein 130” (Eur J Med Chem, 2020)
Activity calls are given as the source filed them. No cut-off for these calls is given here.

Legend:
A549 [1] = assay: Antiproliferative activity against human A549 cells assessed as cell growth inhibition measured after 24 hrs by MTT assay; assay type: functional, cell-based; settings: A549, 24 h
[2] = target: T1, Interleukin-6 receptor subunit beta (Homo sapiens) (UniProt P40189); assay: Binding affinity to D2/D3 domain of FLAG-tagged GP130 (unknown origin) expressed in HEK293 cells assessed as inhibition of rhIL6/Myc-tagged IL6R interaction with GP130 at 10 uM preincubated for 4 hrs followed by stimulation with recombinant human IL6 for 30 mins by co-immunoprecipitation method; assay type: cell-based; settings: time 270.0 min
T1 sequence (whole entry): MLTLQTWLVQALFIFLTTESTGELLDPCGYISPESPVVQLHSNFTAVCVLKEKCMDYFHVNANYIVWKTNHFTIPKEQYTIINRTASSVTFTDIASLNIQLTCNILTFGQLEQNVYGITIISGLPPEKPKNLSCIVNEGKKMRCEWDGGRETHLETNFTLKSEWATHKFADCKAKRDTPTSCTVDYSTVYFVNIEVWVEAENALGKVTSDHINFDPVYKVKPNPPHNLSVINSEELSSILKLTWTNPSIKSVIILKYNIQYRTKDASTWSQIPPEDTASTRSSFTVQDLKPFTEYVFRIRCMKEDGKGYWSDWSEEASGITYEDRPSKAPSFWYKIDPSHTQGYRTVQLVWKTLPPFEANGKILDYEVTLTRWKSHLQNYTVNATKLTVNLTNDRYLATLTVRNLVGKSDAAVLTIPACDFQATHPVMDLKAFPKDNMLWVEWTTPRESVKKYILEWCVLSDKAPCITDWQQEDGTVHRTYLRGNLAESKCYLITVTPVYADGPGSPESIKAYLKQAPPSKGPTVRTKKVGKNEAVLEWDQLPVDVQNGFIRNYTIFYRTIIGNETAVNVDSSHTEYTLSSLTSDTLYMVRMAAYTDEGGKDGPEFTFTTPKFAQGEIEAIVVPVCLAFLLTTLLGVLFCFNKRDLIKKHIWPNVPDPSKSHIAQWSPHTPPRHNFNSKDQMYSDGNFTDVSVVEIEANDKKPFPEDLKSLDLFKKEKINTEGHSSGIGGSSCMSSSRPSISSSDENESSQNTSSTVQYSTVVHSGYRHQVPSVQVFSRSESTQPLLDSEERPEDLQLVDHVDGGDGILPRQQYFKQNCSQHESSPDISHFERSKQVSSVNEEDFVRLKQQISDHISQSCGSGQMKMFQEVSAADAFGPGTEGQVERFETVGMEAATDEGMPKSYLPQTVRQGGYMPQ

[3] = target: T1, Interleukin-6 receptor subunit beta (Homo sapiens); assay: Inhibition of GP130 in human A549 cells assessed as decrease in STAT3 phosphorylation at Y705 residue at 3 to 9 uM incubated for 24 hrs by western blot analysis; assay type: cell-based; settings: dose 3-9 µM
[4] = target: T1, Interleukin-6 receptor subunit beta (Homo sapiens); assay: Inhibition of GP130 in human A549 cells assessed as decrease in IL6-induced STAT3 phosphorylation at Y705 residue at 9 uM incubated for 24 hrs by western blot analysis; assay type: cell-based
[5] = target: T1, Interleukin-6 receptor subunit beta (Homo sapiens); assay: Inhibition of GP130 in human A549 cells assessed as reduction in bcl2 protein expression after 24 hrs by Western blot analysis; assay type: cell-based; settings: dose 3-9 µM
A549 [6] = assay: Induction of apoptosis in human A549 cells assessed as increase in cleaved PARP level at 3 to 9 uM incubated for 24 hrs by Western blot analysis; assay type: functional, cell-based; settings: dose 3-9 µM
A549 [7] = assay: Induction of apoptosis in human A549 cells assessed as viable cells at 3 uM incubated for 24 hrs by annexin V-FITC and propidium iodide staining based flow cytometry analysis (reference value: 97.7 %); assay type: functional; settings: read-out: Activity
A549 [8] = assay: Induction of apoptosis in human A549 cells assessed as early apoptotic cells at 3 uM incubated for 24 hrs by annexin V-FITC and propidium iodide staining based flow cytometry analysis (reference value: 0.5 %); assay type: functional
A549 [9] = assay: Induction of apoptosis in human A549 cells assessed as late apoptotic cells at 3 uM incubated for 24 hrs by annexin V-FITC and propidium iodide staining based flow cytometry analysis (reference value: 1.4 %); assay type: functional
A549 [10] = assay: Induction of apoptosis in human A549 cells assessed as necrotic cells at 3 uM incubated for 24 hrs by annexin V-FITC and propidium iodide staining based flow cytometry analysis (reference value: 0.4 %); assay type: functional
A549 [11] = assay: Induction of apoptosis in human A549 cells assessed as viable cells at 6 uM incubated for 24 hrs by annexin V-FITC and propidium iodide staining based flow cytometry analysis (reference value: 97.7 %); assay type: functional; settings: read-out: Activity
A549 [12] = assay: Induction of apoptosis in human A549 cells assessed as necrotic cells at 6 uM incubated for 24 hrs by annexin V-FITC and propidium iodide staining based flow cytometry analysis (reference value: 0.4 %); assay type: functional
A549 [13] = assay: Induction of apoptosis in human A549 cells assessed as necrotic cells at 9 uM incubated for 24 hrs by annexin V-FITC and propidium iodide staining based flow cytometry analysis (reference value: 0.4 %); assay type: functional
A549 [14] = assay: Induction of ROS generation in human A549 cells assessed as fold increase in ROS level at 9 uM after 24 hrs by DCFH-DA staining based flow cytometric analysis relative to control; assay type: functional
A549 [15] = assay: Inhibition of colony formation in human A549 cells incubated for 24 hrs by crystal violet staining based assay; assay type: functional, cell-based; settings: dose 2-10 µM
A549 [16] = assay: Antimigratory activity against human A549 cells assessed as reduction in cell migration measured after 24 hrs by scratch wound healing assay; assay type: functional, cell-based; settings: dose 3-6 µM
Mus musculus = assay: Inhibition of phosphorylated STAT3 levels in tumor tissue of nude mouse xenografted with human A549 cells at 10 to 20 mg/kg, ip administered daily for 21 days by western blot analysis; assay type: functional, organism-based; settings: dose 10-20 mg/kg, time 21.0 day
[17] = Toxicity in nude mouse xenografted with human A549 cells assessed as effect on body weight at 10 to 20 mg/kg, ip administered daily for 21 days and measured every 2 or 3 days; assay type: organism-based; settings: in vivo, 504 h, dose 10-20 mg/kg, time 21 day
[18] = Acute toxicity in ICR mouse assessed as abnormal behaviour at 120 mg/kg measured after 2 weeks; assay type: organism-based; settings: in vivo, 336 h
[19] = Half life in rat at 5 mg/kg, ig; assay type: ADME, organism-based; settings: in vivo, po
[20] = Half life in rat at 0.5 mg/kg, iv; assay type: ADME, organism-based; settings: in vivo
[21] = AUC (0 to t) in rat at 5 mg/kg, ig; assay type: ADME, organism-based; parameters: dose 5 mg/kg; settings: in vivo, po
[22] = AUC (0 to infinity) in rat at 5 mg/kg, ig; assay type: ADME, organism-based; parameters: route […], time infinity, dose 5 mg/kg; settings: in vivo, po
[23] = AUC (0 to infinity) in rat at 0.5 mg/kg, iv; assay type: ADME, organism-based; parameters: route intravenous, time infinity, dose 0.5 mg/kg; settings: in vivo
[24] = Volume of distribution in rat at 5 mg/kg, ig; assay type: ADME, organism-based; settings: in vivo, po
[25] = Volume of distribution in rat at 0.5 mg/kg, iv; assay type: ADME, organism-based; settings: in vivo
A549 [26] = assay: Potency index, ratio of bazedoxifene IC50 to test compound IC50 for antiproliferative activity against human A549 cells after 24 hrs by MTT assay; assay type: functional
A549 [27] = assay: Antitumor activity against human A549 cells xenografted in nude mouse assessed as decrease in tumor weight at 10 mg/kg, ip administered daily for 21 days and measured every 2 to 3 days; assay type: functional; settings: 504 h, time 21 day

In the case of `NC(=O)N1N=C(c2ccc(C(F)(F)F)cc2)CC1c1cn(Cc2ccc(OCCN3CCCCCC3)cc2)c2ccc(Br)cc12` (stereo not drawn), the IC50 (A549 [1]) is reported as 4.46 µM, the Activity [2] is reported as “inactive” and the Activity [3] is reported as “Active”. For the same compound, the Activity [4] was “Active”, the inhibition [5] was “Dose-dependent effect” and the Activity (A549 [6]) was “Active”. It also gave a viability at 3 µM (A549 [7]) of 96.3%, an Activity (A549 [8]) of 0.9% and an Activity (A549 [9]) of 2.5%. For the same compound, the Activity (A549 [10]) was 0.4%, the viability at 6 µM (A549 [11]) was 91.5% and the Activity (A549 [12]) was 1.9%. The Activity (A549 [13]) was 2.6%, the “fold change (FC)” value (A549 [14]) was 6.28 and the inhibition (A549 [15]) was “Dose-dependent effect”. The Activity (A549 [16]) was “Dose-dependent effect”, the inhibition (Mus musculus) was “Active” and the Activity [17] was “Non-Toxic”. For the same compound, the Activity [18] was “Non-Toxic”, the half-life [19] was 9.8 h and the half-life [20] was 11.8 h. It also gave an AUC(0-t) [21] of 304 ng·h/mL, an AUC [22] of 329.9 ng·h/mL and an AUC(0-inf) [23] of 585 ng·h/mL. For the same compound, the Vd [24] was 12.6 L/kg, the Vd [25] was 14.6 L/kg and the “Ratio IC50” value (A549 [26]) was 5.5. For the same compound, the inhibition in vivo at 10 mg/kg (A549 [27]) was 27.1%.
